Results taken from the supplement of paper PMC7840683.
Counter-ions that a name gives are not always drawn.

System: HepaRG
Assay: LDH release cytotoxicity, % of total lysis control; higher = more cytotoxic
Conditions: 48 h
Procedure, shortened: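 Eight-point half-log series of test chemicals, the highest at 100 µM, were given in duplicate for 48 h to single-lot HepaRG cells on collagen I-coated 96-well plates in serum-free induction medium with 0.5% DMSO. A Tecan Safire read resorufin fluorescence from CytoTox-ONE as a measure of LDH in 50 µL spent medium, with 0.1% Triton X in total lysis wells. Percent cytotoxicity was normalized to on-plate vehicle and total lysis controls and averaged over the duplicates.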

O=S(=O)(O)C(F)(F)C(F)(F)C(F)(F)C(F)(F)C(F)(F)C(F)(F)C(F)(F)C(F)(F)F [Potassium perfluorooctanesulfonate]
Conditions | LDH release cytotoxicity [%]
0.03036 µM | -2.82
0.096 µM | -1.72
0.303579 µM | -2.71
0.96 µM | -2.314
3.03579 µM | -2.44
9.6 µM | -1.36
30.3579 µM | -1.03
96 µM | 27.2

C#CCC1=C(C)C(OC(=O)C2C(C=C(C)C)C2(C)C)CC1=O (stereo unspecified) [Prallethrin]
Conditions | LDH release cytotoxicity [%]
0.0314647 µM | -1.54
0.0995 µM | -0.874
0.3146466 µM | -2.55
0.995 µM | -2.33
3.14647 µM | -1.9
9.95 µM | -1.44
31.4647 µM | -2.39
99.5 µM | 3.9

CCC(C)C(=O)OC1CC(O)C=C2C=CC(C)C(CCC(O)CC(O)CC(=O)O)C21 (stereo unspecified) [Pravastatin sodium]
Conditions | LDH release cytotoxicity [%]
0.03162 µM | -0.512
0.1 µM | -1.91
0.3162278 µM | -0.491
1 µM | -1.07
3.16228 µM | -0.742
10 µM | 0.11
31.6228 µM | 0.155
100 µM | 3.76

CC12C=CC(=O)C=C1CCC1C2C(=O)CC2(C)C1CCC2(O)C(=O)CO (stereo unspecified) [Prednisone]
Conditions | LDH release cytotoxicity [%]
0.03162 µM | -1.86
0.1 µM | -1.83
0.3162278 µM | -2.31
1 µM | -1.54
3.16228 µM | -1.77
10 µM | -1.84
31.6228 µM | -1.61
100 µM | -0.167

CCCN(CCOc1c(Cl)cc(Cl)cc1Cl)C(=O)n1ccnc1 [Prochloraz]
Conditions | LDH release cytotoxicity [%]
0.031623 µM | 0.136
0.1 µM | -2.541
0.316228 µM | -3.11
1 µM | -2.56
3.16228 µM | -0.716
10 µM | -0.855
31.6228 µM | 13.7
100 µM | 64.6

CC12CC1(C)C(=O)N(c1cc(Cl)cc(Cl)c1)C2=O (stereo unspecified) [Procymidone]
Conditions | LDH release cytotoxicity [%]
0.03162 µM | -1.37
0.1 µM | -1.85
0.3162278 µM | -2.08
1 µM | -2.56
3.16228 µM | -2.762
10 µM | -1.32
31.6228 µM | -2.43
100 µM | -1.16

CCCN(CCC)c1c([N+](=O)[O-])cc(C(F)(F)F)c(N)c1[N+](=O)[O-] [Prodiamine]
Conditions | LDH release cytotoxicity [%]
0.03162 µM | -2.33
0.1 µM | -1.51
0.3162278 µM | -2.72
1 µM | -3.4
3.16228 µM | 0.15
10 µM | -1.16
31.6228 µM | -0.459
100 µM | 8.35

CCCSP(=O)(OCC)Oc1ccc(Br)cc1Cl (stereo unspecified) [Profenofos]
Conditions | LDH release cytotoxicity [%]
0.01581 µM | -6.81
0.05 µM | -6.73
0.1581139 µM | -6.46
0.5 µM | -6.51
1.5811388 µM | -6.7
5 µM | -7.47
15.8114 µM | -7.49
50 µM | -6.78

CC(=O)C1CCC2C3CCC4=CC(=O)CCC4(C)C3CCC12C (stereo unspecified) [Progesterone]
Conditions | LDH release cytotoxicity [%]
0.03162 µM | 0.112
0.1 µM | -0.0962
0.3162278 µM | -0.597
1 µM | -0.509
3.16228 µM | -1.13
10 µM | -2
31.6228 µM | 12.6
100 µM | 55.9

COc1nc(NC(C)C)nc(NC(C)C)n1 [Prometon]
Conditions | LDH release cytotoxicity [%]
0.03162 µM | -0.0909
0.1 µM | -0.994
0.3162278 µM | -1.1
1 µM | -1.18
3.16228 µM | -1.26
10 µM | -1.06
31.6228 µM | -0.722
100 µM | -0.643

CSc1nc(NC(C)C)nc(NC(C)C)n1 [Prometryn]
Conditions | LDH release cytotoxicity [%]
0.031623 µM | 1.02
0.1 µM | -3.89
0.316228 µM | -3.27
1 µM | -2.93
3.16228 µM | -2.42
10 µM | -2.73
31.6228 µM | -3.26
100 µM | -1.44

CCCOC(=O)NCCCN(C)C [Propamocarb hydrochloride]
Conditions | LDH release cytotoxicity [%]
0.03162 µM | 0.518
0.1 µM | -0.315
0.3162278 µM | -0.112
1 µM | -0.746
3.16228 µM | 0
10 µM | 0.683
31.6228 µM | 0.664
100 µM | 0.411

CCC(=O)Nc1ccc(Cl)c(Cl)c1 [Propanil]
Conditions | LDH release cytotoxicity [%]
0.03162 µM | -0.963
0.1 µM | -0.318
0.3162278 µM | -0.815
1 µM | -1.73
3.16228 µM | -0.844
10 µM | 0.163
31.6228 µM | 0.666
100 µM | 4.33

C#CCOS(=O)OC1CCCCC1Oc1ccc(C(C)(C)C)cc1 (stereo unspecified) [Propargite]
Conditions | LDH release cytotoxicity [%]
0.03162 µM | -0.16
0.1 µM | -0.456
0.3162278 µM | -0.537
1 µM | 0.246
3.16228 µM | -0.49
10 µM | -0.575
31.6228 µM | 62.8
100 µM | 83.83

CC(C)Nc1nc(Cl)nc(NC(C)C)n1 [Propazine]
Conditions | LDH release cytotoxicity [%]
0.03162 µM | -0.771
0.1 µM | -0.918
0.3162278 µM | -0.266
1 µM | -0.0277
3.16228 µM | -0.787
10 µM | -0.398
31.6228 µM | -0.397
100 µM | -0.828

CCNP(=S)(OC)OC(C)=CC(=O)OC(C)C (stereo unspecified) [Propetamphos]
Conditions | LDH release cytotoxicity [%]
0.03162 µM | 0.305
0.1 µM | -0.308
0.3162278 µM | -1.36
1 µM | -0.42
3.16228 µM | -0.261
10 µM | 0.0856
31.6228 µM | -1.69
100 µM | 2.91

CCCC1COC(Cn2cncn2)(c2ccc(Cl)cc2Cl)O1 (stereo unspecified) [Propiconazole]
Conditions | LDH release cytotoxicity [%]
0.03162 µM | -1.15
0.1 µM | -1.4
0.3162278 µM | -1.43
1 µM | -0.956
3.16228 µM | -0.902
10 µM | -0.927
31.6228 µM | 12.7
100 µM | 26.8

CNC(=O)Oc1ccccc1OC(C)C [Propoxur]
Conditions | LDH release cytotoxicity [%]
0.03162 µM | -0.314
0.1 µM | -0.642
0.3162278 µM | 0.0787
1 µM | -0.886
3.16228 µM | 0.431
10 µM | -0.355
31.6228 µM | -0.0411
100 µM | 2.29

CCCOc1nn(C(=O)NS(=O)(=O)c2ccccc2C(=O)OC)c(=O)n1C [Propoxycarbazone-sodium]
Conditions | LDH release cytotoxicity [%]
0.03162 µM | 0.284
0.1 µM | 0.427
0.3162278 µM | -0.758
1 µM | -0.962
3.16228 µM | -0.435
10 µM | -0.39
31.6228 µM | -0.185
100 µM | 0.864

CCCOC(=O)c1cc(O)c(O)c(O)c1 [Propyl gallate]
Conditions | LDH release cytotoxicity [%]
0.031623 µM | 0.488
0.1 µM | -3.35
0.316228 µM | -3.75
1 µM | -4.27
3.16228 µM | -3.65
10 µM | -3.8
31.6228 µM | -4.52
100 µM | -3.34

CCCc1ccccc1 [Propylbenzene]
Conditions | LDH release cytotoxicity [%]
0.03162 µM | 0.0897
0.1 µM | 0.202
0.3162278 µM | -0.202
1 µM | -0.857
3.16228 µM | 0.305
10 µM | -0.0719
31.6228 µM | 1.09
100 µM | 0.766

CCCOC(=O)c1ccc(O)cc1 [Propylparaben]
Conditions | LDH release cytotoxicity [%]
0.03162 µM | -0.197
0.1 µM | -0.55
0.3162278 µM | -0.664
1 µM | -0.711
3.16228 µM | -0.982
10 µM | -0.514
31.6228 µM | -0.541
100 µM | 0.018

C#CC(C)(C)NC(=O)c1cc(Cl)cc(Cl)c1 [Propyzamide]
Conditions | LDH release cytotoxicity [%]
0.03162 µM | -1.48
0.1 µM | -0.106
0.3162278 µM | -1.18
1 µM | -0.534
3.16228 µM | -1.13
10 µM | -0.249
31.6228 µM | -0.378
100 µM | 1.49

CC1CN(N=Cc2cccnc2)C(=O)N=N1 (stereo unspecified) [Pymetrozine]
Conditions | LDH release cytotoxicity [%]
0.03162 µM | 4.48
0.1 µM | 4.64
0.3162278 µM | 4.33
1 µM | 3.28
3.16228 µM | 5.3
10 µM | 4.29
31.6228 µM | 6.57
100 µM | 9.47

COC(=O)N(OC)c1ccccc1COc1ccn(-c2ccc(Cl)cc2)n1 [Pyraclostrobin]
Conditions | LDH release cytotoxicity [%]
0.03162 µM | -1.44
0.1 µM | -1.43
0.3162278 µM | -1.17
1 µM | -2.24
3.16228 µM | -1.81
10 µM | -0.283
31.6228 µM | 6.12
100 µM | 56.9

CCOC(=O)COc1cc(-c2nn(C)c(OC(F)F)c2Cl)c(F)cc1Cl [Pyraflufen-ethyl]
Conditions | LDH release cytotoxicity [%]
0.03162 µM | 0.0981
0.1 µM | -2.14
0.3162278 µM | -0.894
1 µM | -0.96
3.16228 µM | -1.01
10 µM | -0.751
31.6228 µM | 0.45
100 µM | 1.13

c1cc2ccc3cccc4ccc(c1)c2c34 [Pyrene]
Conditions | LDH release cytotoxicity [%]
0.03162 µM | 0.277
0.1 µM | -1.34
0.3162278 µM | -1.54
1 µM | -0.813
3.16228 µM | -0.783
10 µM | -0.0329
31.6228 µM | -0.764
100 µM | -0.178
